The source of these data is article PMC2248166, “Quantitative peptide binding motifs for 19 human and mouse MHC class I molecules derived using positional scanning combinatorial peptide libraries” (Immunome Research, 2008).

Where a SMILES comes first, the peptide text is derived from it.

This test deals with HLA B*1501 (Homo sapiens, UniProt P01889, A329T/A93T/A95T/C349S/D201E/D98Y/E187L/E204Q/E69M/E70A/K202T/N87E/Q94N/R155S/R180W/S121R/S35A/S48A/V306I/V36M/Y140S/Y91S). Kind of test: biochemical. Format: binding.
Usually IC50 stands for the midpoint of a concentration-inhibition curve. `CSCC[C@H](N)C(=O)N[C@@H](CCC(=O)O)C(=O)N[C@@H](CCCNC(=N)N)C(=O)N[C@@H](Cc1ccccc1)C(=O)N[C@@H](CC(N)=O)C(=O)N[C@@H](CS)C(=O)N[C@@H](CO)C(=O)N[C@@H](CO)C(=O)N[C@@H](Cc1ccccc1)C(=O)O` [3102.0839] (H-MERFNCSSF-OH) yielded an IC50 of 0.0016 µM.
The value for `CC(C)C[C@H](N)C(=O)N[C@@H](CO)C(=O)N[C@@H](CCCNC(=N)N)C(=O)N[C@H](C(=O)N[C@@H](Cc1ccccc1)C(=O)N[C@@H](Cc1ccccc1)C(=O)N[C@@H](CS)C(=O)N[C@H](C(=O)N[C@@H](Cc1ccc(O)cc1)C(=O)O)C(C)C)C(C)C` [3102.0840] (H-LSRVFFCVY-OH) was 0.0029 µM; that for `CSCC[C@H](NC(=O)[C@H](Cc1c[nH]cn1)NC(=O)[C@@H]1CCCN1C(=O)[C@H](CC(C)C)NC(=O)[C@H](Cc1ccccc1)NC(=O)[C@H](CC(N)=O)NC(=O)[C@H](Cc1c[nH]cn1)NC(=O)[C@H](CC(C)C)NC(=O)[C@@H](N)CCSC)C(=O)O` [3102.0846] (H-MLHNFLPHM-OH) was 0.041 µM; that for `CC(C)C[C@H](NC(=O)[C@@H]1CCCN1C(=O)[C@H](CCCNC(=N)N)NC(=O)[C@H](Cc1ccc(O)cc1)NC(=O)[C@H](Cc1ccccc1)NC(=O)[C@@H](NC(=O)CN)C(C)C)C(=O)N[C@@H](Cc1c[nH]cn1)C(=O)N[C@@H](Cc1ccccc1)C(=O)O` [3102.0847] (H-GVFYRPLHF-OH) was 0.0055 µM.
The value for `CC[C@H](C)[C@H](NC(=O)[C@H](CS)NC(=O)[C@H](CO)NC(=O)[C@@H](NC(=O)[C@H](CS)NC(=O)[C@H](CO)NC(=O)[C@H](CCSC)NC(=O)[C@@H](N)CCSC)[C@@H](C)CC)C(=O)N[C@@H](Cc1ccccc1)C(=O)O` [3102.0850] (H-MMSCISCIF-OH) was 0.0076 µM; that for `CC[C@H](C)[C@H](NC(=O)[C@@H](N)CCCCN)C(=O)N[C@@H](CCCCN)C(=O)N[C@@H](Cc1c[nH]cn1)C(=O)N[C@@H](CCCCN)C(=O)NCC(=O)N[C@@H](CCSC)C(=O)N[C@@H](CO)C(=O)N[C@@H](Cc1ccccc1)C(=O)O` [3102.0851] (H-KIKHKGMSF-OH) was 0.047 µM.
In turn, `CC[C@H](C)[C@H](NC(=O)CNC(=O)[C@@H](N)CO)C(=O)NCC(=O)N[C@H](C(=O)N[C@@H](Cc1ccccc1)C(=O)N[C@@H](CC(C)C)C(=O)N[C@@H](Cc1c[nH]cn1)C(=O)N[C@@H](Cc1ccc(O)cc1)C(=O)O)[C@@H](C)O` [3102.0852] (H-SGIGTFLHY-OH) gave an IC50 of 0.023 µM.
The value for `CC[C@H](C)[C@H](NC(=O)[C@@H](N)CO)C(=O)N[C@@H](CS)C(=O)N[C@@H](CO)C(=O)N[C@@H](CCCCN)C(=O)N[C@@H](CO)C(=O)N[C@@H](CC(N)=O)C(=O)N1CCC[C@H]1C(=O)N[C@@H](Cc1ccccc1)C(=O)O` [3102.0855] (H-SICSKSNPF-OH) was 0.039 µM; that for `CSCC[C@H](NC(=O)[C@H](CCCCN)NC(=O)[C@H](CCCCN)NC(=O)[C@H](Cc1ccc(O)cc1)NC(=O)[C@@H](NC(=O)[C@@H](N)CC(C)C)C(C)C)C(=O)N[C@@H](CCC(N)=O)C(=O)N[C@@H](CO)C(=O)N[C@@H](Cc1ccc(O)cc1)C(=O)O` [3102.0856] (H-LVYKKMQSY-OH) was 0.046 µM; that for `CC[C@H](C)[C@H](NC(=O)[C@H](CS)NC(=O)[C@H](CCCNC(=N)N)NC(=O)[C@H](Cc1c[nH]cn1)NC(=O)[C@H](CC(C)C)NC(=O)[C@@H](N)CC(C)C)C(=O)N[C@@H](Cc1ccc(O)cc1)C(=O)N[C@@H](Cc1c[nH]cn1)C(=O)N[C@@H](Cc1ccc(O)cc1)C(=O)O` [3102.0866] (H-LLHRCIYHY-OH) was 0.043 µM.
The value for `CC[C@H](C)[C@H](N)C(=O)N[C@@H](CO)C(=O)N[C@H](C(=O)N[C@@H](CCCCN)C(=O)N[C@@H](CC(C)C)C(=O)N[C@@H](CO)C(=O)N[C@@H](CS)C(=O)N[C@@H](Cc1c[nH]cn1)C(=O)N[C@@H](Cc1ccc(O)cc1)C(=O)O)[C@@H](C)O` [3102.0872] (H-ISTKLSCHY-OH) was 0.018 µM; that for `CC(C)C[C@H](NC(=O)[C@H](CCCCN)NC(=O)[C@H](CS)NC(=O)[C@H](CC(C)C)NC(=O)[C@@H](N)CO)C(=O)N[C@@H](CC(N)=O)C(=O)N[C@@H](CC(N)=O)C(=O)N[C@H](C(=O)N[C@@H](Cc1ccccc1)C(=O)O)C(C)C` [3102.0874] (H-SLCKLNNVF-OH) was 0.016 µM.
The value for `CC[C@H](C)[C@H](NC(=O)[C@H](C)NC(=O)[C@H](CC(C)C)NC(=O)[C@@H](N)CC(C)C)C(=O)N[C@@H](CO)C(=O)N[C@@H](C)C(=O)N[C@H](C(=O)N[C@@H](Cc1ccc(O)cc1)C(=O)N[C@@H](Cc1ccccc1)C(=O)O)C(C)C` [3102.0875] (H-LLAISAVYF-OH) was 0.032 µM; that for `CC[C@H](C)[C@H](NC(=O)[C@H](CC(N)=O)NC(=O)[C@@H]1CCCN1C(=O)[C@H](CS)NC(=O)[C@@H](NC(=O)[C@@H](N)CCSC)C(C)C)C(=O)N[C@@H](CC(N)=O)C(=O)N[C@@H](C)C(=O)N[C@@H](Cc1ccccc1)C(=O)O` [3102.0876] (H-MVCPNINAF-OH) was 0.022 µM; that for `CSCC[C@H](NC(=O)[C@H](Cc1ccc(O)cc1)NC(=O)[C@H](CO)NC(=O)[C@H](CCC(=O)O)NC(=O)[C@H](Cc1ccc(O)cc1)NC(=O)[C@H](CS)NC(=O)[C@H](Cc1c[nH]cn1)NC(=O)[C@H](CC(C)C)NC(=O)[C@@H](N)CCSC)C(=O)O` [3102.0879] (H-MLHCYESYM-OH) was 0.097 µM.
Take `CSCC[C@H](NC(=O)[C@H](Cc1c[nH]cn1)NC(=O)[C@H](CS)NC(=O)[C@@H](NC(=O)[C@H](CC(N)=O)NC(=O)[C@H](CC(N)=O)NC(=O)[C@@H](NC(=O)[C@H](CO)NC(=O)[C@@H](N)C(C)C)C(C)C)C(C)C)C(=O)O` [3102.0880] (H-VSVNNVCHM-OH): the IC50 was determined as 0.014 µM.
The value for `CSCC[C@H](NC(=O)[C@@H](N)C(C)C)C(=O)N[C@H](C(=O)N[C@@H](CCCCN)C(=O)N[C@@H](Cc1c[nH]c2ccccc12)C(=O)N[C@@H](CS)C(=O)N[C@@H](C)C(=O)N1CCC[C@H]1C(=O)N[C@@H](Cc1ccccc1)C(=O)O)[C@@H](C)O` [3102.0886] (H-VMTKWCAPF-OH) was 0.0019 µM; that for `CSCC[C@H](NC(=O)[C@H](C)NC(=O)[C@H](CCCCN)NC(=O)[C@H](Cc1ccccc1)NC(=O)[C@@H](NC(=O)[C@@H](N)CC(N)=O)C(C)C)C(=O)N[C@@H](CCC(=O)O)C(=O)N[C@H](C(=O)N[C@@H](Cc1ccccc1)C(=O)O)[C@@H](C)O` [3102.0887] (H-NVFKAMETF-OH) was 0.023 µM.
The compound `CC[C@H](C)[C@H](NC(=O)[C@H](CCC(=O)O)NC(=O)[C@@H](N)CO)C(=O)N[C@@H](CCCNC(=N)N)C(=O)N[C@@H](Cc1c[nH]c2ccccc12)C(=O)N[C@@H](CCC(=O)O)C(=O)N[C@@H](CCC(=O)O)C(=O)N[C@@H](CO)C(=O)N[C@@H](Cc1ccccc1)C(=O)O` [3102.0890] (H-SEIRWEESF-OH) had an IC50 of 0.047 µM.
The value for `CC[C@H](C)[C@H](N)C(=O)N[C@H](C(=O)N[C@H](C(=O)N1CCC[C@H]1C(=O)N[C@@H](Cc1ccccc1)C(=O)N[C@H](C(=O)N[C@@H](C)C(=O)N[C@@H](Cc1ccc(O)cc1)C(=O)N[C@@H](Cc1ccccc1)C(=O)O)[C@@H](C)CC)[C@@H](C)CC)[C@@H](C)CC` [3102.0892] (H-IIIPFIAYF-OH) was 0.0016 µM.
With `CSCC[C@H](N)C(=O)N[C@H](C(=O)N[C@@H](Cc1ccc(O)cc1)C(=O)N[C@@H](CCCCN)C(=O)N[C@@H](CC(C)C)C(=O)N[C@H](C(=O)N[C@@H](CC(C)C)C(=O)N[C@@H](CC(C)C)C(=O)N[C@@H](Cc1ccccc1)C(=O)O)C(C)C)C(C)C` [3102.0893] (H-MVYKLVLLF-OH), the IC50 amounted to 0.071 µM.
